From ChEMBL document CHEMBL5696441 (Nat Chem Biol, 2011)
pIC50: −log10 of the molar value.

How the values were obtained:
[1] = biological target: Tyrosine-protein kinase SYK (Homo sapiens) (UniProt P43405); experiment: Inhibition of SYK (unknown origin) assessed as remaining activity at 1 uM by Kinome scan method relative to control
[2] = biological target: Serine/threonine-protein kinase 3 (Homo sapiens) (UniProt Q13188); experiment: Inhibition of MST2 (unknown origin) assessed as remaining activity at 1 uM by Kinome scan method relative to control
[3] = biological target: Mitogen-activated protein kinase 9 (Homo sapiens) (UniProt P45984); experiment: Inhibition of human JNK2 assessed as residual activity at 1 uM using ATF2 as substrate in presence of 33P-ATP by ProQinase assay relative to control
[4] = biological target: Tyrosine-protein kinase BTK (Homo sapiens) (UniProt Q06187); experiment: Inhibition of human BTK assessed as residual activity at 1 uM using PolyEY as substrate in presence of 33P-ATP by ProQinase assay relative to control
[5] = biological target: Mitogen-activated protein kinase kinase kinase kinase 5 (Homo sapiens) (UniProt Q9Y4K4); experiment: Inhibition of human MAP4K5 assessed as residual activity at 1 uM using casein as substrate in presence of 33P-ATP by ProQinase assay relative to control
[6] = biological target: Serine/threonine-protein kinase PLK3 (Homo sapiens) (UniProt Q9H4B4); experiment: Inhibition of human PLK3 assessed as residual activity at 1 uM using casein as substrate in presence of 33P-ATP by ProQinase assay relative to control
[7] = Anti-inflammatory activity against human derived high respond PBMC cells assessed as inhibition in stimulated IL-4 cytokine release incubated for 2 hrs in the presence of LPS/SEB/aCD28 by Luminex based sandwich immunoassay; assay type: functional, cell-based
[8] = biological target: Cyclin-dependent kinase 1/cyclin B1 (Homo sapiens) (UniProt P06493+P14635); experiment: Inhibition of human CDK1/CycB1 assessed as residual activity at 1 uM using RBER-CHKtide as substrate in presence of 33P-ATP by ProQinase assay relative to control; assay type: protein-complex assay
[9] = biological target: Tyrosine-protein kinase SYK (Homo sapiens) (UniProt P43405); experiment: Inhibition of human SYK (1 to 635 residues) assessed as residual activity at 1 uM using polyEY as substrate in presence of 33P-ATP by ProQinase assay relative to control
[10] = biological target: Serine/threonine-protein kinase 4 (Homo sapiens) (UniProt Q13043); experiment: Inhibition of MST1 (unknown origin) assessed as remaining activity at 1 uM by Kinome scan method relative to control
[11] = biological target: Eukaryotic translation initiation factor 2-alpha kinase 3 (Homo sapiens) (UniProt Q9NZJ5); experiment: Inhibition of human EIF2AK3 assessed as residual activity at 1 uM using casein as substrate in presence of 33P-ATP by ProQinase assay relative to control
[12] = Anti-inflammatory activity against human derived medium respond PBMC cells assessed as inhibition in stimulated IL-17A cytokine release incubated for 2 hrs in the presence of LPS/SEB/aCD28 by Luminex based sandwich immunoassay; assay type: functional, cell-based
[13] = tested on: Proto-oncogene tyrosine-protein kinase receptor Ret (Homo sapiens), P07949 [M918T]; experiment: Inhibition of RET M918T (unknown origin) assessed as remaining activity at 1 uM by Kinome scan method relative to control
[14] = biological target: Wee1-like protein kinase (Homo sapiens) (UniProt P30291); experiment: Inhibition of human WEE1 assessed as residual activity at 1 uM using poly(Ala,Glu,Lys,Tyr)6:2:5:1 as substrate in presence of 33P-ATP by ProQinase assay relative to control
[15] = biological target: Protein-tyrosine kinase 2-beta (Homo sapiens) (UniProt Q14289); experiment: Inhibition of PYK2 (unknown origin) assessed as remaining activity at 1 uM by Kinome scan method relative to control
[16] = biological target: Protein kinase C theta type (Homo sapiens) (UniProt Q04759); experiment: Inhibition of PRKCQ (unknown origin) assessed as remaining activity at 1 uM by Kinome scan method relative to control
[17] = biological target: Tyrosine-protein kinase Srms (Homo sapiens) (UniProt Q9H3Y6); experiment: Inhibition of human SRMS assessed as residual activity at 1 uM using PolyEY as substrate in presence of 33P-ATP by ProQinase assay relative to control
[18] = biological target: Inhibitor of nuclear factor kappa-B kinase subunit beta (Homo sapiens) (UniProt O14920); experiment: Inhibition of IKK-beta (unknown origin) assessed as remaining activity at 1 uM by Kinome scan method relative to control
[19] = biological target: Protein kinase C eta type (Homo sapiens) (UniProt P24723); experiment: Inhibition of human PKCeta assessed as residual activity at 1 uM using histon H2B as substrate in presence of 33P-ATP by ProQinase assay relative to control
[20] = biological target: Calcium/calmodulin-dependent protein kinase type 1D (Homo sapiens) (UniProt Q8IU85); experiment: Inhibition of human CAMK1D assessed as residual activity at 1 uM using RBER-CHKtide as substrate in presence of 33P-ATP by ProQinase assay relative to control
[21] = biological target: Homeodomain-interacting protein kinase 1 (Homo sapiens) (UniProt Q86Z02); experiment: Inhibition of human HIPK1 assessed as residual activity at 1 uM using RBER-CHKtide as substrate in presence of 33P-ATP by ProQinase assay relative to control
[22] = biological target: Ribosomal protein S6 kinase alpha-5 (Homo sapiens) (UniProt O75582); experiment: Inhibition of C-terminal kinase domain RPS6KA5 (unknown origin) assessed as remaining activity at 1 uM by Kinome scan method relative to control
[23] = tested on: Serine/threonine-protein kinase B-raf (Homo sapiens), P15056 [V600E]; experiment: Inhibition of human BRAF V600E mutant assessed as residual activity at 1 uM using MEK1-K97M as substrate in presence of 33P-ATP by ProQinase assay relative to control
[24] = biological target: Serine/threonine-protein kinase PAK 4 (Homo sapiens) (UniProt O96013); experiment: Inhibition of PAK4 (unknown origin) assessed as remaining activity at 1 uM by Kinome scan method relative to control
[25] = biological target: Serine/threonine-protein kinase Nek5 (Homo sapiens) (UniProt Q6P3R8); experiment: Inhibition of NEK5 (unknown origin) assessed as remaining activity at 1 uM by Kinome scan method relative to control
[26] = tested on: Hepatocyte growth factor receptor (Homo sapiens), P08581 [Y1230H]; experiment: Inhibition of human MET Y1230H mutant assessed as residual activity at 1 uM using poly(Ala,Glu,Lys,Tyr)6:2:5:1 as substrate in presence of 33P-ATP by ProQinase assay relative to control
[27] = biological target: Serine/threonine-protein kinase Sgk1 (Homo sapiens) (UniProt O00141); experiment: Inhibition of human SGK1 assessed as residual activity at 1 uM using RBER-GSK3(14-27) as substrate in presence of 33P-ATP by ProQinase assay relative to control
[28] = biological target: Death-associated protein kinase 1 (Homo sapiens) (UniProt P53355); experiment: Inhibition of human DAPK1 assessed as residual activity at 1 uM using RBER-GSK3 as substrate in presence of 33P-ATP by ProQinase assay relative to control

Chain of Serine/threonine-protein kinase PAK 4 (Homo sapiens) (O96013 whole entry, looked up): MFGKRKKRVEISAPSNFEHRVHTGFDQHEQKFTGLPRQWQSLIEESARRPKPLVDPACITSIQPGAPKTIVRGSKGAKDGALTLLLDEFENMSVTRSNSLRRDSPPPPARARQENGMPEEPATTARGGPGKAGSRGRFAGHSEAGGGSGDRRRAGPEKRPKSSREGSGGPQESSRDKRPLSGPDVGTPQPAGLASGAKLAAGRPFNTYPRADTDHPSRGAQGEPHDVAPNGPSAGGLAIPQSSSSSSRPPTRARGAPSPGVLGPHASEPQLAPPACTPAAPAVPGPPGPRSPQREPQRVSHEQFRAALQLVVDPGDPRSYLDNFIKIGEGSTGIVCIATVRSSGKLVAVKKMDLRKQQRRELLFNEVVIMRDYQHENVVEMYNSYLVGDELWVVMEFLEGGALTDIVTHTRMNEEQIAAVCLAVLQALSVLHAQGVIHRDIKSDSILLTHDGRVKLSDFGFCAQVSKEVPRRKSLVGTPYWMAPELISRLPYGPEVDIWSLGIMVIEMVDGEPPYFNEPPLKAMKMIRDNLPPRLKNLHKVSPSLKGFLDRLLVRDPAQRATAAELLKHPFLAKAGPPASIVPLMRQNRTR
Chain of Protein kinase C theta type (Homo sapiens) (Q04759 whole entry, looked up): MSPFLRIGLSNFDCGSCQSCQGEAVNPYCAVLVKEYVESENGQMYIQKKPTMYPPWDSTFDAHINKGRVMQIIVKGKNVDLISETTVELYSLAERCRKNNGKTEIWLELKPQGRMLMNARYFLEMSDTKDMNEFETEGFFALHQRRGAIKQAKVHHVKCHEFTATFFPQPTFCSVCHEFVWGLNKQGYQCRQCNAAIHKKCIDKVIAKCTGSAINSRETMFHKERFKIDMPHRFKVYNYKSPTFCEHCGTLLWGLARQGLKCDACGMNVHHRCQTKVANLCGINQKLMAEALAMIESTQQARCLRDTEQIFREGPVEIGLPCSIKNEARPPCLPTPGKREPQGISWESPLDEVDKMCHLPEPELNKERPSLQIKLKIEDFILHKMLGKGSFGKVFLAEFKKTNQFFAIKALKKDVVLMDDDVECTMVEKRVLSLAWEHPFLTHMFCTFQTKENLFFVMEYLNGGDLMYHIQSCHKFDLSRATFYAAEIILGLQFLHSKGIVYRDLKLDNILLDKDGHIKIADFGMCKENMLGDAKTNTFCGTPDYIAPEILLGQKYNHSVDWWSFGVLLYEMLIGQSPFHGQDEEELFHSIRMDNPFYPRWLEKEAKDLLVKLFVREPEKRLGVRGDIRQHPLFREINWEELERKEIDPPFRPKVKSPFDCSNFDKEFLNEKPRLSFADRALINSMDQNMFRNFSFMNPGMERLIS
Chain of Eukaryotic translation initiation factor 2-alpha kinase 3 (Homo sapiens) (Q9NZJ5 whole entry): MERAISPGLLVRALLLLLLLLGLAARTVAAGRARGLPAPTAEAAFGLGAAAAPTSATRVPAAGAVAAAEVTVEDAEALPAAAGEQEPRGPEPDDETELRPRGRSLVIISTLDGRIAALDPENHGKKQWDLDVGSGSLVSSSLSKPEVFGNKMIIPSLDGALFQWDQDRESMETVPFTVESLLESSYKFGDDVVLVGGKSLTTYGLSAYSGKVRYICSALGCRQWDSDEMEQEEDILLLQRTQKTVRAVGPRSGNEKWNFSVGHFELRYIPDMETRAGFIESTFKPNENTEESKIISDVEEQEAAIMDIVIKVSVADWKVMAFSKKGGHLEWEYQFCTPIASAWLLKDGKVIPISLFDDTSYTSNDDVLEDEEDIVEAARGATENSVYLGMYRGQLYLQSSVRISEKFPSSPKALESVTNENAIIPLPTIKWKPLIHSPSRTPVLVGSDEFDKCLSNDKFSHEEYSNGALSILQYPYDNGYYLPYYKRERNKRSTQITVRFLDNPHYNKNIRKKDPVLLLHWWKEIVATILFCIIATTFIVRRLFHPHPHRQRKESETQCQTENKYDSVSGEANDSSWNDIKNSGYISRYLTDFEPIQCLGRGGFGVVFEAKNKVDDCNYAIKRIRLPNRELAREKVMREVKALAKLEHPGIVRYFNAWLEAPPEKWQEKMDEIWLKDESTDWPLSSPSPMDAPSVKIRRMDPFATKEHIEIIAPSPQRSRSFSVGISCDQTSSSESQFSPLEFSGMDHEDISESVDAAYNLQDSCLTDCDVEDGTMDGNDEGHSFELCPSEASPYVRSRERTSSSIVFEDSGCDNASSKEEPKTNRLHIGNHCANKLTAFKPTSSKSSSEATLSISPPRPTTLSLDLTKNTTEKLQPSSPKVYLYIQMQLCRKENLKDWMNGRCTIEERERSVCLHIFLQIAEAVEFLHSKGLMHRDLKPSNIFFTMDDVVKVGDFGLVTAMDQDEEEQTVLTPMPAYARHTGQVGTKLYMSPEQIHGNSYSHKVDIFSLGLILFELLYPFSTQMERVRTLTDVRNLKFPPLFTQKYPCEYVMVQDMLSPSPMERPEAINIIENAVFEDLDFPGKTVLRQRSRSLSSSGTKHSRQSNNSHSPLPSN
Chain of Serine/threonine-protein kinase B-raf (Homo sapiens), P15056 [V600E] (P15056 whole entry V600E): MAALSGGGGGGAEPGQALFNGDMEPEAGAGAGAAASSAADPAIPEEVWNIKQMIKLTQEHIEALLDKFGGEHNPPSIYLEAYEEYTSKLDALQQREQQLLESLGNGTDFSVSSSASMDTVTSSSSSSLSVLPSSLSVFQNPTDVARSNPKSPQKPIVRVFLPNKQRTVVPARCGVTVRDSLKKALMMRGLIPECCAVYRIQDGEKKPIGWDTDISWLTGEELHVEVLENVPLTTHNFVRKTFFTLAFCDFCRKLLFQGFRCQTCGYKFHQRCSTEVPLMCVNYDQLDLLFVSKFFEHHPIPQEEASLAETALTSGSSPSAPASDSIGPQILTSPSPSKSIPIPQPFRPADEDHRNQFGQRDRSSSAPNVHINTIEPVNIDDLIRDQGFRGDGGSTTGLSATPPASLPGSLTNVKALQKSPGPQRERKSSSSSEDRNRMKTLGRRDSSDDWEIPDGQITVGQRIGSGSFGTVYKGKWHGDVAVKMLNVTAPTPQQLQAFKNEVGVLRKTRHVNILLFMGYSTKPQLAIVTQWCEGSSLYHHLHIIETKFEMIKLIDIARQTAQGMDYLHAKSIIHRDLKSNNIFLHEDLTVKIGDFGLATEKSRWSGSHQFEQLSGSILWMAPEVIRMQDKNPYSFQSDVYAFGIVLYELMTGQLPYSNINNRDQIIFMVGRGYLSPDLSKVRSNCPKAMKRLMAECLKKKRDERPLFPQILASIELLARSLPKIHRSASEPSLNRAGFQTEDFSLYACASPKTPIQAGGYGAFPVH
Chain of Serine/threonine-protein kinase Nek5 (Homo sapiens) (Q6P3R8 whole entry): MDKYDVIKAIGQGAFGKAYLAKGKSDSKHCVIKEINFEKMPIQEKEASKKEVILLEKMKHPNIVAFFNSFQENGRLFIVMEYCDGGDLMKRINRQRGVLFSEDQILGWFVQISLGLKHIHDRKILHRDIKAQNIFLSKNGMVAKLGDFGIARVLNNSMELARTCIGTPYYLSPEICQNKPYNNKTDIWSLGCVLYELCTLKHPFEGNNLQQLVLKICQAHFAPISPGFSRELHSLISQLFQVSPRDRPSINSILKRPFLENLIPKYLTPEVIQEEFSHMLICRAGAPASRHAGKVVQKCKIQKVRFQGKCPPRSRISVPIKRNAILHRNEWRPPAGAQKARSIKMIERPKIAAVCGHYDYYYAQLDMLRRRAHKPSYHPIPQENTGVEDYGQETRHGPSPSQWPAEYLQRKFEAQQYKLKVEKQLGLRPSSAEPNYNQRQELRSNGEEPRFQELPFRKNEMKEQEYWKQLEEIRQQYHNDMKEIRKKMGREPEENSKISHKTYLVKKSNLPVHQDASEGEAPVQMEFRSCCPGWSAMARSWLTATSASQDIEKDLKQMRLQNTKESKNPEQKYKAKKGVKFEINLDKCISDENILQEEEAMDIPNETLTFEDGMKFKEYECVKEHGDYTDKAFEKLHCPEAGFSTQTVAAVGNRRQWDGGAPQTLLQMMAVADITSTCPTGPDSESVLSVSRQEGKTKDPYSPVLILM
Chain of Mitogen-activated protein kinase kinase kinase kinase 5 (Homo sapiens) (Q9Y4K4 whole entry, looked up): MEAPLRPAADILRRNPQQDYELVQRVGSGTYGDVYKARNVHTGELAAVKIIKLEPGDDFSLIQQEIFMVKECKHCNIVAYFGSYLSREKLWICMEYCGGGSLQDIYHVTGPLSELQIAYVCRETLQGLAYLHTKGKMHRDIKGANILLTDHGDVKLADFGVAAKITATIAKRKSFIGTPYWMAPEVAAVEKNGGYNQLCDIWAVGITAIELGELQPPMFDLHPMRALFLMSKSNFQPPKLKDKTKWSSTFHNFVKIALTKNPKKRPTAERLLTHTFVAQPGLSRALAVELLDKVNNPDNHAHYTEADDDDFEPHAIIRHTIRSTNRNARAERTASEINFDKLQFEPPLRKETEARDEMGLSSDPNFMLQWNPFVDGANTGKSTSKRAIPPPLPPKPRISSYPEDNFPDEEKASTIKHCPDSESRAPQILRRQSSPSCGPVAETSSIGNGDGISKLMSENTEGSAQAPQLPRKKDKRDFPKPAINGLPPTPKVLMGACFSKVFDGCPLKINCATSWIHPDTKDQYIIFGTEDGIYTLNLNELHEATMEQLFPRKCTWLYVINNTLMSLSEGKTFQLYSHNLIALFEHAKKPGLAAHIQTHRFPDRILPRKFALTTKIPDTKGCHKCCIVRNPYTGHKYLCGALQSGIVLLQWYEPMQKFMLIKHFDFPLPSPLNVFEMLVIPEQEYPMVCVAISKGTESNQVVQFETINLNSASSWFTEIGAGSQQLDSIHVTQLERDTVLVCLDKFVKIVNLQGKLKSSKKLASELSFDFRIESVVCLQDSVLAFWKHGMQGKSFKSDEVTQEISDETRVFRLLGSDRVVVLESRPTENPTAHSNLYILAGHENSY

`O=C1c2ccc(Nc3ccc(F)cc3F)cc2CCc2ccc(OC[C@H](O)CO)cc21` [Skepinone-L] showed an Activity [1] of 100%, an Activity [2] of 100% and an Activity [3] of 58%. The Activity [4] was 100%, the Activity [5] was 84% and the Activity [6] was 99%. For the same molecule, the IC50 [7] was “Not Active”, the Activity [8] was 83% and the Activity [9] was 98%. The Activity [10] was 100%, the Activity [11] was 95% and the pIC50 [12] was 5.11. For the same molecule, the Activity [13] was 100%, the Activity [14] was 88% and the Activity [15] was 100%. It also gave an Activity [16] of 83%, an Activity [17] of 95% and an Activity [18] of 100%. The Activity [19] was 97%, the Activity [20] was 106% and the Activity [21] was 98%. It also gave an Activity [22] of 92%, an Activity [23] of 135% and an Activity [24] of 100%. It also gave an Activity [25] of 100%, an Activity [26] of 102% and an Activity [27] of 90%. It also gave an Activity [28] of 86%.
